The test system of one data set is mice of the HFD group. Description: Comparison with mellitin: body weight changes in HFD mice. In kind it is in vivo. Particulars: 0.5 mg/kg intraperitoneally for 16 weeks, vs control group (PBS). As to the method: In order to investigate a component having an excellent obesity inhibitory effect among the components of bee venom, mellitin, which is the most abundant in bee venom, was compared with bvPLA2, which is PLA2 derived from bee venom.
More specifically, the mice of the ND and HFD groups were intraperitoneally administered with PBS, mellitin, and bvPLA2 at 0.5 mg/kg each for 16 weeks, and then the body weight changes were compared every day.

Data set [1] has as its system white adipose tissue (WAT). Put plainly: Quantitative real-time PCR of M1/M2 markers and adipogenic factors in white adipose tissue. The format is in vivo, mice. The procedure:
Total RNA was isolated from white adipose tissue (WAT) samples by using an easy-BLUE RNA extraction kit (iNtRON Biotechnology, Korea), and cDNA was synthesized using Cyclescript reverse transcriptase (Bioneer, Korea). The synthesized cDNA was subjected to quantitative real-time PCR (95° C. for 15 sec, 55° C. for 10 sec, and 72° C. for 10 sec) with SensiFAST SYBR no-Rox kit (Bioline, Korea), and each reaction was performed in triplicate. The primer sequences for the experiment were as follows:
The changes in macrophage phenotypes were analyzed by quantitative real-time PCR analysis.
More specifically, the expressions of TNF-α, IL-1β, and IL-12a were measured to investigate the effect of bvPLA2 on M1-related markers.
In addition, the expressions of the M2-related markers IL-4, CD206, and Ym1 were measured.
In addition, the expressions of PPARγ, C/EBPα, and UCP-1, which are markers related with lipid accumulation and adipogenesis, were measured.

For data set [2], the system named is CD206-deficient (CD206-/-) mice lacking the mannose receptor. Put plainly: Body weight and adipose tissue weight of CD206-deficient mice on HFD. The format is in vivo. The following applies: HFD+PLA2 vs HFD group. The procedure:
(§1) Male C57BL/6 mice (5 weeks old; weight 18-20 g) and CD206−/− mice (B6.129P2-MRC1tm1Mnz/J) were purchased from Jackson Laboratory (Bar Harbor, Me.). After acclimation for one week, the mice were fed a normal diet (ND, 10 kcal %) or a high-fat diet (HFD, 60 kcal %) for 15 weeks. Thereafter, the mice were intraperitoneally injected with PBS or bvPLA2 (0.5 mg/kg) starting on week 5 and continuing for 11 weeks.
In order to investigate the immunoregulatory effect of bvPLA2, CD206-deficient (CD206−/−) mice lacking the mannose receptor were used.
More specifically, the body weight and adipose tissue weight of CD206−/− mice were measured by way of the same method as the above experimental schedule (FIG. 1A).

For data set [3], the system named is mice with HFD-induced obesity. Put plainly: Adipose tissue weight and body weight of mice with HFD-induced obesity. In kind it is in vivo, C57BL/6 mice. The procedure:
as §1
The obesity amelioration effect of bvPLA2 was evaluated through changes in adipose tissue weight and body weight of mice with HFD-induced obesity.
More specifically, the […] mice were fed ND or HFD for 15 weeks. After 4 weeks of ND or HFD feeding, the mice were injected with PLA2 or PBS, starting on week 5 (FIG. 1A). Thereafter, the adipose tissue and body weight were measured according to the injection or non-injection of bvPLA2.

Data set [4] concerns HFD-induced metabolic dysfunction. Put plainly: Serum/plasma levels of liver, kidney and metabolic markers by group. The format is in vivo, mice. As to the method: The effects of bvPLA2 on liver and kidney functions were investigated.
More specifically, serum levels of alanine aminotransferase (ALT), aminotransferase (AST), blood urea nitrogen (BUN), and […] (Crea) were measured for each group.
In order to investigate the effect of bvPLA2 on metabolic syndrome, the triglyceride (TG), glucose (GLU), high-density lipoprotein cholesterol (HDL-C), and low-density lipoprotein cholesterol (LDL-C) levels were analyzed for each group.
In addition, plasma insulin and leptin levels were analyzed for each group.

The test system of data set [5] is pro-inflammatory macrophages in WAT. Put plainly: H&E histological examination of macrophage infiltration in WAT. In kind it is in vivo, mice. Particulars: bvPLA2-treated HFD+PLA2 group vs HFD group. As to the method: (§2) Liver and kidney tissues were fixed in 4% paraformaldehyde overnight, dehydrated, embedded in paraffin, and sectioned to a thickness of 4 μm. The sections were deparaffinized with xylene and then hydrated again with 100%, 90%, 80%, and 70% ethanol. The hydrated sections were washed with tap water and stained with a hematoxylin solution for 5 minutes. Thereafter, the stained sections were immersed in 1% acid alcohol, and then stained again in an eosin solution for 3 minutes. Thereafter, for mounting, the stained sections were dehydrated with 70%, 80%, 90%, or 100% ethanol […].
Since obesity is characterized by the localization of crown-like structures (CLS), which are formed by pro-inflammatory macrophages surrounding dead adipocytes in AT28, H&E histological examination was performed to investigate whether bvPLA2 inhibited the macrophage infiltration in WAT.

For data set [6], the system named is liver and kidney tissues from the mice. Put plainly: H&E staining of liver and kidney: HFD-induced hepatic steatosis and kidney damage. The format is in vivo. The procedure: as §2
In order to investigate whether PLA2 alleviated HFD-induced hepatic steatosis and kidney inflammation, liver and kidney tissues from the mice were H&E stained.
Next, the glomerular diameter indicating an early indicator of diabetic nephropathy caused by kidney damage was investigated.

Data set [7] concerns obesity-induced mice, regulatory T cell depletion. Description: Body weight of obesity-induced mice with regulatory T cell depletion (anti-mouse CD25 PC61) or rat IgG control. The format is in vivo. The procedure: Anti-mouse CD25 (clone: PC61) was produced from hybridomas obtained from the American Type Culture Collection (ATCC; Manassas, Va., USA), and the mice were intraperitoneally injected with anti-mouse CD25 or rat IgG (Sigma-Aldrich) every 3 days for 11 weeks.
In order to investigate the correlation between bvPLA2 and regulatory T cells, regulatory T cell depletion was performed by injecting anti-mouse CD25 antibody (clone PC61) into mice every 3 days. Rat IgG was used as a control.

Where [8] appears, read: M1-related marker, HFD+PLA2 group vs HFD group.
Where [9] appears, read: M2-related marker, HFD-PLA2 group vs HFD group.
Where [10] appears, read: lipid accumulation/adipogenesis marker, HFD+PLA2 group vs HFD group.
[11] abbreviates: bvPLA2-treated HFD group vs HFD group.
[12] abbreviates: serum, HFD+PLA2 group vs HFD group.

This note sets out measurements from patent US20220211821A1, “COMPOSITION FOR PREVENTING OR TREATING OBESITY, COMPRISING PHOSPHOLIPASE A2 AS ACTIVE INGREDIENT” (UNIVERSITY-INOUSTRY COOPERATION GROUP OF KYUNG HEE …, priority 2019, published 2022).

Take mellitin [reference compound]: the body weight change result in the data set with mice of the HFD group is reported as “increase in body weight”.
As for phospholipase A2 [bvPLA2], in data set [1] (HFD+PLA2 group vs HFD group), the UCP-1 expression result is “significantly increased”. In data set [1] (setting [8]), the IL-1β expression result is recorded as “inhibited to levels similar to those in ND”, the IL-12a expression result was “inhibited to levels similar to those in ND” and the TNF-α expression result is given as “inhibited to levels similar to those in ND”. In data set [1] (setting [9]), the CD206 expression entry is recorded as “significantly increased” and the IL-4 expression entry is on record as “significantly increased”. Moreover, in data set [1] (setting [10]), the C/EBPα expression result is “inhibited” and the PPARγ expression result is recorded as “inhibited”. In data set [2], the adipose tissue weight entry is reported as “no significant changes” and the body weight entry is “no significant changes”. In data set [3] (HFD+PLA2 group vs HFD group), the “epididymal WAT weight” value is reported as “greatly reduced” and the “inguinal WAT weight” value is reported as “greatly reduced”. The body weight entry in data set [3] (HFD+PLA2 group vs HFD group without PLA2, 0.5 mg/kg intraperitoneally from week 5) is listed as “significant reduction in body weight”. For the same substance, in data set [3] (all groups (ND, HFD, with or without PLA2)), the food uptake entry is on record as “no food uptake change was observed”. For the same substance, in data set [4] (HFD+PLA2 group vs HFD group), the plasma insulin level entry is on record as “significantly reduced” and the plasma leptin level result is listed as “significantly reduced”. Moreover, in data set [4] (setting [11]), the “serum ALT level” value is recorded as “reduced”, the “serum AST level” value is listed as “reduced” and the “serum Crea level” value is “reduced”. In data set [4] (setting [12]), the GLU level entry is given as “significantly reduced”, the HDL-C level entry is recorded as “significantly reduced”, the LDL-C level entry is recorded as “significantly reduced” and the TG level result is reported as “significantly reduced”. Further, in data set [5], the “CLS formation in AT” value is given as “reduced” and the “macrophage infiltration in AT” value is “reduced”. In addition, the “kidney hypertrophy (increased glomerular diameter)” value in data set [6] (HFD+PLA2 group) is “no kidney hypertrophy”. Also, in data set [6] (ND+PLA2 group), the “kidney hypertrophy (increased glomerular diameter)” value is recorded as “no kidney hypertrophy”; the “size and weight of the liver (lipid droplet accumulation and hepatomegaly)” value was “no influence was observed”. In addition, the “size and weight of the liver (lipid droplet accumulation and hepatomegaly)” value in data set [6] (setting [11]) is “attenuated”. Besides, the body weight change entry in the data set with mice of the HFD group is “decrease in body weight”. Further, the body weight result in data set [7] (IgG+PLA2 obesity-induced group vs IgG-only obesity-induced group) is “significantly reduced”. Also, in data set [7] (PC61+PLA2 group vs PC61-treated group), the body weight result is “markedly reduced”.
